Assay results from PMC6255753, “Investigation of the phosphorylation of Bacillus subtilis LTA synthases by the serine/threonine kinase PrkC” (Scientific Reports, 2018).

Columns and labels:
Experiment in all cases: thermal shift titration (SYPRO Orange), Hill fit
Assay type in all cases: binding
Conditions in all cases: read-out: Apparent KD
eYfnI (YfnI) [1] = biological target: T1, eYfnI (YfnI) (Bacillus subtilis, UniProt Q797B3)
T1 construct: gene ltaS1; extracellular catalytic domain (borders not given), N-terminal 6His tag removed by AcTEV; E. coli Rosetta; pProEX-eYfnI
Text: (§1) thermal shift titration (SYPRO Orange), Hill fit on eYfnI (YfnI)

eYfnI (YfnI) [2] = biological target: T2, eYfnI (YfnI) (Bacillus subtilis, UniProt Q797B3, T297A)
T2 construct: gene ltaS1; extracellular catalytic domain (borders not given), N-terminal 6His tag removed by AcTEV; E. coli Rosetta; pProEX-eYfnI
Text: as §1

eYfnI (YfnI) [3] = biological target: T3, eYfnI (YfnI) (Bacillus subtilis, UniProt Q797B3, T297D)
T3 construct: gene ltaS1; extracellular catalytic domain (borders not given), N-terminal 6His tag removed by AcTEV; E. coli Rosetta; pProEX-eYfnI
Text: as §1

T3 sequence (Q797B3 215-639 T297D): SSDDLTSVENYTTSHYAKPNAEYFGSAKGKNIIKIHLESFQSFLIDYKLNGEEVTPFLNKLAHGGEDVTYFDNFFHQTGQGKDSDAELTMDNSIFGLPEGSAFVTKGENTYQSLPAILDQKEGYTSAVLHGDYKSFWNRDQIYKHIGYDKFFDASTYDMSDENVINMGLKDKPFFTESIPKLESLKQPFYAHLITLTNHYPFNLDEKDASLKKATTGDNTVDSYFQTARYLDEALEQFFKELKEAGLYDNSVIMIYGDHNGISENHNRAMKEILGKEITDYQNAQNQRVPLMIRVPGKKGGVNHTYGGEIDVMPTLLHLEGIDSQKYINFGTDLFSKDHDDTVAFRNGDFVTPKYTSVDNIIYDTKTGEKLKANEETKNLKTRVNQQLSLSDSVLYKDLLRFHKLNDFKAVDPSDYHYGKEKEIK
T1 sequence (Q797B3 215-639): as the sequence (Q797B3 215-639 T297D) above, with D83T counted along it
T2 sequence (Q797B3 215-639 T297A): as the sequence (Q797B3 215-639 T297D) above, with D83A counted along it

Kd (eYfnI (YfnI) [1]): 2.9 mM
Kd (eYfnI (YfnI) [2]): 8 mM
Kd (eYfnI (YfnI) [3]): 5.4 mM
Compound: O=P(O)(O)OCC(O)CO (stereo not drawn) [GroP]
